Measurements as given in the CATMoS acute toxicity set (Mansouri et al. 2021).

assay: rat acute oral toxicity; conditions: in vivo
Description: […]The data set underlying the modeling effort for this project was initially compiled by NICEATM and U.S. EPA’s CCTE. Briefly, LD50 data were collected from rat acute oral systemic toxicity tests, including limit tests, ranges/confidence intervals, and discrete LD50 values. The full data set included 21,200 LD50 entries for 15,688 substances. […] Data were reviewed to ensure that LD50 values with obvious errors in the extracted data such as unit conversion errors (e.g., comma and decimal separator misplacements) were either fixed or removed. After this review, 16,209 LD50 values remained. Many of the chemicals represented had multiple LD50 entries, requiring that a single representative value per Chemical Abstracts Service Registry Number (CASRN) identifier be defined to facilitate modeling efforts. Based on ATWG feedback and to define the representative LD50 as a protective value while accounting for the distribution across multiple LD50s, the median of the lowest quartile was computed using only discrete LD50 values (omitting limit test data and range and confidence interval data). A detailed summary of the data compilation is available online on the NICEATM webpage dedicated to the collaborative modeling project (NTP 2020).
[…][…] For categorical designations, limit test and range/confidence interval LD50 data were integrated wherever possible. As such, the number of chemicals with end point values/calls varies across the modeling end points (Table 3) based on whether chemicals had representative LD50 values and/or other data. If a chemical had both, the representative value was used to determine categorical calls rather than limit test data. Some data were useable only for certain end points and categories depending on the thresholds. For example, ranges that spanned multiple hazard categories were considered only for the binary (very toxic/nontoxic) end points and omitted from rendering a determination for hazard category assignment.
[…]The final data set comprising 11,992 chemicals was split into training and evaluation sets […], respectively. This process was performed semirandomly by ordering chemicals based on the five end points (categorical and continuous LD50 values) and partitioning every fourth record into the evaluation set accordingly. This approach was taken to ensure an equivalent distribution of the LD50 values and the different hazard categories between the training and the evaluation sets without supervised sampling of the chemicals based on structures (Figure 1A). The sources of the chemical structures were also kept equivalent between the two sets, with chemical structures obtained from DSSTox, being the highest quality, representing over 75% of each set (Figure 1B).

SMILES | LD50
OC(c1ccc(Cl)cc1)(c1ccc(Cl)cc1)C(Cl)(Cl)Cl | 575 mg/kg
Oc1nc2ccccc2[nH]1 | 1930 mg/kg
CCOCCOCCO | 5570 mg/kg
CCNc1ccccc1 | 334 mg/kg
CS(C)=O | 14500 mg/kg
C=C(C)C(=O)O | 1060 mg/kg
COc1cc(CNC(=O)CCCC/C=C/C(C)C)ccc1O | 148 mg/kg
OCCOc1ccccc1 | 1370 mg/kg
CC(=O)C1C(=O)C=C(C)OC1=O (configuration not stated) | 500 mg/kg
ClC1=C(Cl)C2(Cl)C3C(Cl)OC(Cl)C3C1(Cl)C2(Cl)Cl (configuration not stated) | 4.8 mg/kg
Oc1ccccc1Cl | 40 mg/kg
COC(=O)/C=C\C(=O)OC | 1410 mg/kg
C=C(C)C(N)=O | 1650 mg/kg
CN(C)C | 460 mg/kg
Cc1c(N)cccc1N | 1000 mg/kg
CC(C)C(Nc1ccc(C(F)(F)F)cc1Cl)C(=O)OC(C#N)c1cccc(Oc2ccccc2)c1 (configuration not stated) | 261 mg/kg
CCNc1nc(Cl)nc(NC(C)(C)C#N)n1 | 149 mg/kg
O=C=NCc1cccc(CN=C=O)c1 | 3200 mg/kg
CC(O)CCO (configuration not stated) | 18600 mg/kg
CC(C)CC(C)O (configuration not stated) | 2590 mg/kg
CCCCCCCCCCCCCCCCCC[N+](C)(C)C | 702 mg/kg
O=S(=O)(O)OCCOc1ccc(Cl)cc1Cl | 480 mg/kg
Sc1ccccc1 | 46 mg/kg
CCCCCCCC(=O)OC | 10100 mg/kg
CC(=O)OCCOC(C)=O | 6850 mg/kg

SMILES | LD50
CC(C)[C@H](C(=O)O[C@H](C#N)c1cccc(Oc2ccccc2)c1)c1ccc(Cl)cc1 | 88 mg/kg
Clc1cccc(Cl)c1 | 580 mg/kg
NC(N)=S | 20 mg/kg
CC(=O)C(Cl)C(=O)N(C)C (configuration not stated) | 275 mg/kg
COC(=O)C(C)Oc1ccc(Oc2ccc(Cl)cc2Cl)cc1 (configuration not stated) | 481 mg/kg
CC(C)(C)OOC1(OOC(C)(C)C)CCCCC1 | 13300 mg/kg
CC(C)(C)c1ccc(CCOc2ncnc3ccccc23)cc1 | 134 mg/kg
CC(C)(c1ccc(O)cc1)c1cccc(C(C)(C)c2ccc(O)cc2)c1 | 5460 mg/kg
CC1=CC(=O)NS(=O)(=O)O1 | 5440 mg/kg
CC1(C)CC(N)CC(C)(C)N1 | 906 mg/kg
CCOP(=O)(OCC)OP(=O)(OCC)OCC | 0.5 mg/kg
C=CC(=O)OCCOC | 404 mg/kg
C=CCO | 64 mg/kg
CSCCC=O | 490 mg/kg
Cl/C=C\CCl | 81.5 mg/kg
CCCC=O | 2490 mg/kg
C=CC(C#N)OC(C)=O (configuration not stated) | 31.6 mg/kg
Clc1nc(Cl)nc(Cl)n1 | 315 mg/kg
Oc1ccc(Cl)cc1 | 500 mg/kg
O=C=Nc1ccc(OC(F)(F)F)cc1 | 1520 mg/kg
CCCCCCCCCCCCCCCCCCOCCO | 1900 mg/kg
CCCC1CC(C)(OC(C)=O)CCO1 (configuration not stated) | 4300 mg/kg
BrC(Br)Br | 933 mg/kg
Nc1ccc(Nc2ccccc2)cc1 | 464 mg/kg
CC(CC=O)CC(C)(C)C (configuration not stated) | 3240 mg/kg

SMILES | LD50
NCC1CCCC(CN)C1 (configuration not stated) | 880 mg/kg
O=c1n(CC2CO2)c(=O)n(CC2CO2)c(=O)n1CC1CO1 (configuration not stated) | 222 mg/kg
CSc1ccc2c(c1)N(CCC1CCCCN1C)c1ccccc1S2 (configuration not stated) | 995 mg/kg
Oc1ccccc1O | 260 mg/kg
CCCCOCCOCCOC(C)=O | 6500 mg/kg
N#Cc1ccccc1 | 700 mg/kg
CCC(=O)OCc1ccccc1 | 3300 mg/kg
C[Si](C)(Cl)Cl | 595 mg/kg
CC(C)[C@H](C(=O)OC(C#N)c1cccc(Oc2ccccc2)c1)c1ccc(OC(F)F)cc1 (some centres not stated) | 67 mg/kg
CC=Cc1ccc2c(c1)OCO2 | 1300 mg/kg
C/C=C\CC1=C(C)[C@@H](OC(=O)[C@@H]2[C@@H](C=C(C)C)C2(C)C)CC1=O | 1030 mg/kg
CCCCO | 790 mg/kg
NC(=O)c1c(F)cccc1F | 1080 mg/kg
COP(=S)(OC)Oc1ccc([N+](=O)[O-])c(C)c1 | 250 mg/kg
Clc1ccc(C(Cl)Cl)cc1 | 1910 mg/kg
O=C(CCCN1CCC(O)(c2ccc(Cl)cc2)CC1)c1ccc(F)cc1 | 128 mg/kg
Clc1ccc(C(c2ccc(Cl)cc2)C(Cl)(Cl)Cl)cc1 | 87 mg/kg
Cc1ccc(S(C)(=O)=O)cc1[N+](=O)[O-] | 933 mg/kg
NC1CCCCC1 | 11 mg/kg
C=CC(=O)OCCCC | 900 mg/kg
CCCCCCCCCCC(N)CO (configuration not stated) | 300 mg/kg
CCc1nn(C)c(C(=O)NCc2ccc(C(C)(C)C)cc2)c1Cl | 595 mg/kg
O=[N+]([O-])c1ccc(Cl)cc1O | 1000 mg/kg
C#CC(C)(C)NC(=O)c1cc(Cl)cc(Cl)c1 | 3350 mg/kg
CC1CCCCN1CCCOC(=O)c1ccc(Cl)c(Cl)c1 (configuration not stated) | 800 mg/kg

SMILES | LD50
CCCCOCCOC(C)=O | 1880 mg/kg
C=CC(=O)OCC(O)COCCCCOCC(O)COC(=O)C=C (configuration not stated) | 200 mg/kg
COCCOCCOCCOC | 5390 mg/kg
CC(C)(C)c1ccc(CSc2cnn(C(C)(C)C)c(=O)c2Cl)cc1 | 570 mg/kg
O=C1C=CC(=O)N1c1ccccc1 | 128 mg/kg
CCC12COCN1COC2 | 3670 mg/kg
CC(C)(C)c1cc(C(C)(C)C)c(O)c(C(C)(C)C)c1 | 1610 mg/kg
CC(C)(C)CC(C)(C)N | 218 mg/kg
C=C[Si](ON=C(C)CC)(ON=C(C)CC)ON=C(C)CC | 3520 mg/kg
Cc1ccc(C)c(OCCCC(C)(C)C(=O)O)c1 | 479 mg/kg
C=CC[N+](C)(C)CC=C | 2520 mg/kg
CCCCCCCCC=CCCCCCCCCOCCO | 2700 mg/kg
CC1OC(C)OC(C)O1 (configuration not stated) | 1530 mg/kg
O=S(=O)(C(Cl)(Cl)Cl)C(Cl)(Cl)Cl | 535 mg/kg
C1=CC2CCC1C2 | 9580 mg/kg
Cc1cc(Cl)ccc1OCCCC(=O)O | 680 mg/kg
CCN(CC)C(=O)c1cccc(C)c1 | 1950 mg/kg
CCCCOCCOCCOCc1cc2c(cc1CCC)OCO2 | 4570 mg/kg
NC(=O)c1cccnc1 | 3500 mg/kg
c1ccc(CNc2[nH]cnc3ncnc2-3)cc1 | 1300 mg/kg
CCO[Si](CCCN)(OCC)OCC | 1570 mg/kg
Clc1cc(Cl)c(Cl)nc1Cl | 1000 mg/kg
CCOP(c1ccccc1)c1ccccc1 | 316 mg/kg
Nc1ccccc1C(F)(F)F | 1870 mg/kg
C=COCCCl | 210 mg/kg

SMILES | LD50
O=C(Nc1ccc(Cl)c(Cl)c1)Nc1cc(Cl)ccc1Oc1ccc(Cl)cc1S(=O)(=O)O | 476 mg/kg
ClC1=C(Cl)C2(Cl)C3C4CC(C5OC45)C3C1(Cl)C2(Cl)Cl (configuration not stated) | 3 mg/kg
C=C(C)[C@H]1Cc2c(ccc3c2O[C@@H]2COc4cc(OC)c(OC)cc4[C@@H]2C3=O)O1 | 25 mg/kg
CCOP(=S)(OCC)Oc1ccc([N+](=O)[O-])cc1 | 2.1 mg/kg
CN=C=S | 55 mg/kg
CC(=O)c1cc2c(cc1C)C(C)(C)C(C)CC2(C)C (configuration not stated) | 920 mg/kg
OCCNc1ccccc1 | 2230 mg/kg
C1CCSC1 | 1750 mg/kg
Cc1cccc(C)c1N | 840 mg/kg
Cc1ccc(O)c(C)c1 | 2300 mg/kg
Clc1ccc(Cl)cc1 | 500 mg/kg
CCOP(=S)(OCC)OC(Cl)C(Cl)(Cl)Cl (configuration not stated) | 1.8 mg/kg
CC(C)NC(C)C | 310 mg/kg
N=C(Nc1ccccc1)Nc1ccccc1 | 107 mg/kg
CCCCC(CC)COS(=O)(=O)O (configuration not stated) | 2840 mg/kg
ClC(Cl)=C(Cl)Cl | 2630 mg/kg
C[C@@H]1Cc2c(Cl)cc(C(=O)N[C@@H](Cc3ccccc3)C(=O)O)c(O)c2C(=O)O1 | 20 mg/kg
CCCCOP(C)(=O)CCC(C#N)OC(C)=O (configuration not stated) | 253 mg/kg
CCN(CC)N=O | 220 mg/kg
OCCOCCOCCO | 17000 mg/kg
Nc1ccc(Sc2ccc(N)cc2)cc1 | 900 mg/kg
CC(=O)OC(C)(C)C | 4100 mg/kg
CCOP(=S)(OCC)Oc1nc(Cl)c(Cl)cc1Cl | 108 mg/kg
O=C1NC(=O)C(c2ccccc2)(c2ccccc2)N1 | 250 mg/kg
CC1OC(C)OC(C)OC(C)O1 (configuration not stated) | 227 mg/kg

SMILES | LD50
C#CCO | 20 mg/kg
CC(Cl)(Cl)C(=O)O | 6940 mg/kg
Cc1ncc2n1-c1ccc(Cl)cc1C(c1ccccc1F)=NC2 | 215 mg/kg
O=[N+]([O-])/N=C1\NCCN1Cc1ccc(Cl)nc1 | 410 mg/kg
C/C=C\CC1=C(C)[C@@H](OC(=O)[C@@H]2[C@@H](/C=C(\C)C(=O)OC)C2(C)C)CC1=O | 1030 mg/kg
COC(=O)Nc1ccc(Cl)c(Cl)c1 | 522 mg/kg
CCOC(=O)CC(=O)C(F)(F)F | 765 mg/kg
COc1ccc(C(CN)C2(O)CCCCC2)cc1 (configuration not stated) | 200 mg/kg
CC(C)OC(=O)Cl | 468 mg/kg
COCCCNc1nc(NCCCOC)nc(SC)n1 | 1400 mg/kg
NC(=O)NCc1ccccc1 | 2700 mg/kg
ClC1=C(Cl)[C@]2(Cl)[C@H]3[C@H]([C@@H]4C=C[C@H]3C4)[C@@]1(Cl)C2(Cl)Cl (racemic) | 39 mg/kg
CCOP(=O)(SC(C)CC)SC(C)CC (configuration not stated) | 37.1 mg/kg
O=CCCCC=O | 134 mg/kg
O=c1oc2ccccc2c(O)c1C1CC(c2ccc(OCc3ccc(C(F)(F)F)cc3)cc2)Cc2ccccc21 (configuration not stated) | 0.25 mg/kg
CC(C)OC(=O)COc1ccc(Cl)cc1Cl | 375 mg/kg
CNC(=O)ON=CC(C)(C)SC | 0.5 mg/kg
CC(C)O | 4710 mg/kg
COP(=S)(OC)Oc1cc(Cl)c(Br)cc1Cl | 1600 mg/kg
OC[C@@H](O)[C@H](O)[C@@H](O)CO | 14100 mg/kg
Cc1cc(C)cc(N)c1 | 707 mg/kg
CS(=O)(=O)O | 200 mg/kg
